The source of these data is patent publication US20140206737A1 (Beijing Zhongwei Shennong Chronic Disease Medical Research …, priority 2013, published 2014).

Each structure is given as a SMILES string. Where a name gives a salt, the structure may show the parent alone.

In series [1] the test system is opioid dependent participants. The series is described as follows: Treatment of heroin addiction: degree of anxiety by Hamilton Anxiety Scale (HAMA). Particulars: Day 5. The class given is in vivo, human. As for the experimental part:
(§1) 1.1. Subject selection criteria: 60 participants, in the range of 18-50 years of age, male or female, and opioid dependent as diagnosed according to the DSM-IV diagnostic criteria for opioid dependence.
(§2) 1.3. Grouping: 60 cases of participants were randomly divided into two groups according to the order of admission: the test group and the methadone control group.
(§3) The control group used methadone hydrochloride oral medication of 10 mg/10 ml each. Comparison method: according to the heroin-dependent self-restraining degree of 7-10 days, the treatment was designed to be 10 days long for both groups. […] The treatment concluded on day 10. Methadone control group was admitted 50-60 mg methadone on the first day; starting on day 2, the methadone dose was reduced by 10 mg per day each day; starting on day 6, the methadone dose was reduced by 2 mg per day each day. The treatment concluded on day 10. Supplementary drugs used in the two groups included normal doses of clonazepam tablets (clonazopam), alprazolam tablets (Alprazoli) once a day at night.
1.5.3. […]
1.6. Statistical analysis of the two groups: the general characteristics, withdrawal symptoms, and anxiety symptoms of the two groups, were statistically analyzed using the t test, chi-square test and Fisher's Exact Test, using suitable software such as SPSS 7.0. […]

The test system of series [2] is opioid dependent participants. The series is described as follows: Treatment of heroin addiction: clinical rating of withdrawal symptoms. The class given is in vivo, human.
Source text: as §1
Subject exclusion criteria: candidates with serious heart disease, liver or kidney dysfunction, mental illness, serious bodily weakness, or pregnant or lactating women were excluded.
as §2, §3
1.5.1. Clinical rating used indicators of withdrawal, which has 20 indicators including craving, anxiety, agitation, nausea, vomiting, hot face, chills, or alternating chills and fever, yawning, runny nose, tears, sweating, drowsiness, cutis anserina, tremors, bone and muscle pain, anorexia, abdominal pain, diarrhea, insomnia, and curled position. The rating was done daily on the day before the treatment and on each day during the treatment. The severity of withdrawal symptoms was scored as level 0-4 (five levels in total). Scoring for each participant was done at 9:00 am every day.
(§4) 1.6. Statistical analysis of the two groups: the general characteristics, withdrawal symptoms, and anxiety symptoms of the two groups, were statistically analyzed using the t test, chi-square test and Fisher's Exact Test, using suitable software such as SPSS 7.0. The t test was applied to the symptom data of the two groups, and chi-square test or Fisher's Exact Test was applied to the count data.

The subject of series [3] is opioid dependent participants. The experiment in a line: Treatment of heroin addiction: adverse reactions and side effects. Particulars: 10-day treatment. How it is done: as §1, §2, §3
1.5.2. Recordation of adverse reactions: adverse reactions were evaluated in the withdrawal symptom measurement table, using a total of 10 indicators that include: dizziness, syncope, malaise, nausea, vomiting, sweating, dry mouth, drowsiness, blurred vision, disturbance of consciousness. The recordation was done each morning at 9:00.
as §4

`CCC(=O)C(CC(C)N(C)C)(c1ccccc1)c1ccccc1` (stereo not drawn) [Methadone, methadone hydrochloride]: in series [1], the “emotional changes measured by HAMA (x ± s)” value was determined as 8.83 ± 0.45. Moreover, the “withdrawal symptoms (x ± s)” value turned out to be 56.03 ± 1.80 in series [2] (Before treatment, 20 indicators scored level 0-4, 30 per group); 5.01 ± 0.83 in series [2] (Day 1 of treatment); 27.78 ± 1.40 in series [2] (Day 2 of treatment); 19.71 ± 1.13 in series [2] (Day 3 of treatment); 13.54 ± 1.01 in series [2] (Day 4 of treatment); 8.27 ± 0.28 in series [2] (Day 5 of treatment). The “withdrawal symptoms (x ± s)” value is 3.84 ± 0.06 in series [2] (Day 6 of treatment); 3.26 ± 0.27 in series [2] (Day 7 of treatment); 3.84 ± 0.07 in series [2] (Day 8 of treatment); 3.82 ± 0.18 in series [2] (Day 9 of treatment); 4.80 ± 0.11 in series [2] (Day 10 of treatment). Besides, in series [3] (count, 30 per group), the “Adverse Reactions: Abdominal pain” value was 6. Moreover, the “Adverse Reactions: Chills” value in series [3] (count, 30 per group) was 7. In series [3] (count, 30 per group), the “Adverse Reactions: Diarrhea” value is listed as 3. Further, the “Adverse Reactions: Runny nose” value in series [3] (count, 30 per group) is reported as 8. The “Adverse Reactions: Tears” value in series [3] (count, 30 per group) came out at 8. For the same compound, the Side effects result in series [3] (heroin addiction study) is “dizziness, malaise, nausea, sweating and heart palpitations”.
